≈ marks a conversion by molar mass, not a printed value. Where two headings read alike, the source gives them in different places.
Assays:
[1] = system: Staphylococcus aureus, MRSA (ATCC 33591); assay: Antibacterial MIC assay (microbroth dilution, CLSI); assay type: cell-based; settings: read-out: MIC Staphylococcus aureus, MRSA (ATCC 33591)
Source text: (§1) All MIC testing of bacteria followed the Clinical and Laboratory Standards Institute (CLSI) guidelines for antimicrobial testing of aerobic bacteria (Methods for Dilution Antimicrobial Susceptibility Tests for Bacteria that Grow Aerobically; Approved Standard—Tenth Edition, M07-A10; Performance Standards for Antimicrobial Susceptibility Testing; Twenty-fifth Informational Supplement, M100-S25).
(§2) Briefly, the microbroth dilution MIC method was used to quantitatively measure the in vitro antibacterial activity of a compound against a given bacterial isolate. The following bacterial strains were evaluated: Staphylococcus aureus, MRSA (ATCC 33591) and Streptococcus pneumoniae (ATCC 49619). Bacteria were grown in cation-adjusted Mueller-Hinton broth, with additions as required per species growth requirements (e.g. 3% lysed horse blood for fastidious organisms such as S. pneumoniae). A direct colony suspension in saline was prepared from colonies on an overnight agar plate to achieve a turbidity equivalent to 0.5 McFarland standard, which was subsequently diluted into the assay plate to achieve 5×10^5 CFU/mL. Assays plates were prepared by 2-fold dilution of compound across the plate and included a positive growth control.

[2] = system: Streptococcus pneumoniae (ATCC 49619); assay: as above; assay type: cell-based
Source text: as §1
as §2, with “The following bacterial strains were evaluated: Staphylococcus aureus, MRSA (ATCC 33591) and Streptococcus pneumoniae (ATCC 49619).” left out

[3] = ATCC49619, read-out: MIC Streptococcus pneumoniae (ATCC 49619)
[4] = microbroth dilution, cation-adjusted Mueller-Hinton broth, 35° C. for 16-20 hours
[5] = ATCC49619, microbroth dilution, 3% lysed horse blood, 35° C. for 16-20 hours, read-out: MIC Streptococcus pneumoniae (ATCC 49619)

| MIC [1, 4] [µg/mL] | MIC [2, 5] [µg/mL] | Compound | MIC [1] [µg/mL] | MIC [2, 3] [µg/mL] |
| --- | --- | --- | --- | --- |
|  |  | C=C[C@]1(C)C[C@@H](OC(=O)COc2ccc3c(c2)B(O)OC3)[C@]2(C)[C@H](C)CC[C@]3(CCC(=O)[C@H]32)[C@@H](C)[C@@H]1O [Compound 1, (3aR,4R,5R,7S,8S,9R,9aS,12R)-8-hydroxy-4,7,9,12-tetramethyl-3-oxo-7-vinyldecahydro-4,9a-propanocyclopenta[8]annulen-5-yl 2-((1-hydroxy-1,3-dihydrobenzo[c][1,2]oxaborol-6-yl)oxy)acetate] | < 0.25 | < 0.25 |
|  |  | C=C[C@]1(C)C[C@@H](OC(=O)COc2ccc3c(c2F)B(O)OC3)[C@]2(C)[C@H](C)CC[C@]3(CCC(=O)[C@H]32)[C@@H](C)[C@@H]1O [Compound 2, (3aR,4R,5R,7S,8S,9R,9aS,12R)-8-hydroxy-4,7,9,12-tetramethyl-3-oxo-7-vinyldecahydro-4,9a-propanocyclopenta[8]annulen-5-yl 2-((7-fluoro-1-hydroxy-1,3-dihydrobenzo[c][1,2]oxaborol-6-yl)oxy)acetate] | < 0.25 | 0.5 to 2 (≈ 0.946 to 3.78 µM) |
|  |  | C=C[C@]1(C)C[C@@H](OC(=O)COc2cc3c(cc2F)COB3O)[C@]2(C)[C@H](C)CC[C@]3(CCC(=O)[C@H]32)[C@@H](C)[C@@H]1O [Compound 3, (3aR,4R,5R,7S,8S,9R,9aS,12R)-8-hydroxy-4,7,9,12-tetramethyl-3-oxo-7-vinyldecahydro-4,9a-propanocyclopenta[8]annulen-5-yl 2-((5-fluoro-1-hydroxy-1,3-dihydrobenzo[c][1,2]oxaborol-6-yl)oxy)acetate] | < 0.25 | < 0.25 |
|  |  | C=C[C@]1(C)C[C@@H](OC(=O)COc2cc(F)c3c(c2)B(O)OC3)[C@]2(C)[C@H](C)CC[C@]3(CCC(=O)[C@H]32)[C@@H](C)[C@@H]1O [Compound 4, (3aR,4R,5R,7S,8S,9R,9aS,12R)-8-hydroxy-4,7,9,12-tetramethyl-3-oxo-7-vinyldecahydro-4,9a-propanocyclopenta[8]annulen-5-yl 2-((4-fluoro-1-hydroxy-1,3-dihydrobenzo[c][1,2]oxaborol-6-yl)oxy)acetate] | < 0.25 | 0.5 to 2 (≈ 0.946 to 3.78 µM) |
|  |  | C=C[C@]1(C)C[C@@H](OC(=O)COc2c(F)cc3c(c2F)B(O)OC3)[C@]2(C)[C@H](C)CC[C@]3(CCC(=O)[C@H]32)[C@@H](C)[C@@H]1O [Compound 5, (3aR,4R,5R,7S,8S,9R,9aS,12R)-8-hydroxy-4,7,9,12-tetramethyl-3-oxo-7-vinyldecahydro-4,9a-propanocyclopenta[8]annulen-5-yl 2-((5,7-difluoro-1-hydroxy-1,3-dihydrobenzo[c][1,2]oxaborol-6-yl)oxy)acetate] | < 0.25 | < 0.25 |
|  |  | C=C[C@]1(C)C[C@@H](OC(=O)COc2ccc3c(c2Cl)B(O)OC3)[C@]2(C)[C@H](C)CC[C@]3(CCC(=O)[C@H]32)[C@@H](C)[C@@H]1O [Compound 6, (3aR,4R,5R,7S,8S,9R,9aS,12R)-8-hydroxy-4,7,9,12-tetramethyl-3-oxo-7-vinyldecahydro-4,9a-propanocyclopenta[8]annulen-5-yl 2-((7-chloro-1-hydroxy-1,3-dihydrobenzo[c][1,2]oxaborol-6-yl)oxy)acetate] | < 0.25 | 0.5 to 2 (≈ 0.918 to 3.67 µM) |
|  |  | C=C[C@]1(C)C[C@@H](OC(=O)COc2cc(CN)c3c(c2Cl)B(O)OC3)[C@]2(C)[C@H](C)CC[C@]3(CCC(=O)[C@H]32)[C@@H](C)[C@@H]1O [Compound 8, (3aR,4R,5R,7S,8S,9R,9aS,12R)-8-hydroxy-4,7,9,12-tetramethyl-3-oxo-7-vinyldecahydro-4,9a-propanocyclopenta[8]annulen-5-yl 2-((4-(aminomethyl)-7-chloro-1-hydroxy-1,3-dihydrobenzo[c][1,2]oxaborol-6-yl)oxy)acetate] | < 0.25 | 0.5 to 2 (≈ 0.871 to 3.48 µM) |
|  |  | C=C[C@]1(C)C[C@@H](OC(=O)COc2ccc3c(c2C)B(O)OC3)[C@]2(C)[C@H](C)CC[C@]3(CCC(=O)[C@H]32)[C@@H](C)[C@@H]1O [Compound 9, (3aR,4R,5R,7S,8S,9R,9aS,12R)-8-hydroxy-4,7,9,12-tetramethyl-3-oxo-7-vinyldecahydro-4,9a-propanocyclopenta[8]annulen-5-yl2-((1-hydroxy-7-methyl-1,3-dihydrobenzo[c][1,2]oxaborol-6-yl)oxy)acetate] | < 0.25 | 0.5 to 2 (≈ 0.953 to 3.81 µM) |
| < 0.25 | < 0.25 | C=C[C@]1(C)C[C@@H](OC(=O)COc2cc3c(cc2C)COB3O)[C@]2(C)[C@H](C)CC[C@]3(CCC(=O)[C@H]32)[C@@H](C)[C@@H]1O [Compound 10, (3aR,4R,5R,7S,8S,9R,9aS,12R)-8-hydroxy-4,7,9,12-tetramethyl-3-oxo-7-vinyldecahydro-4,9a-propanocyclopenta[8]annulen-5-yl 2-((1-hydroxy-5-methyl-1,3-dihydrobenzo[c][1,2]oxaborol-6-yl)oxy)acetate] |  |  |
|  |  | C=C[C@]1(C)C[C@@H](OC(=O)COc2cc(C)c3c(c2)B(O)OC3)[C@]2(C)[C@H](C)CC[C@]3(CCC(=O)[C@H]32)[C@@H](C)[C@@H]1O [Compound 11, (3aR,4R,5R,7S,8S,9R,9aS,12R)-8-hydroxy-4,7,9,12-tetramethyl-3-oxo-7-vinyldecahydro-4,9a-propanocyclopenta[8]annulen-5-yl 2-((1-hydroxy-4-methyl-1,3-dihydrobenzo[c][1,2]oxaborol-6-yl)oxy)acetate] | < 0.25 | < 0.25 |
| < 0.25 | < 0.25 | C=C[C@]1(C)C[C@@H](OC(=O)COc2cc(CN)c3c(c2)B(O)OC3)[C@]2(C)[C@H](C)CC[C@]3(CCC(=O)[C@H]32)[C@@H](C)[C@@H]1O.Cl [Compound 12, (3aR,4R,5R,7S,8S,9R,9aS,12R)-8-hydroxy-4,7,9,12-tetramethyl-3-oxo-7-vinyldecahydro-4,9a-propanocyclopenta[8]annulen-5-yl 2-((4-(aminomethyl)-1-hydroxy-1,3-dihydrobenzo[c][1,2]oxaborol-6-yl)oxy)acetate Hydrochloride] |  |  |
|  |  | C=C[C@]1(C)C[C@@H](OC(=O)COc2ccc3c(c2OC)B(O)OC3)[C@]2(C)[C@H](C)CC[C@]3(CCC(=O)[C@H]32)[C@@H](C)[C@@H]1O [Compound 14, (3aR,4R,5R,7S,8S,9R,9aS,12R)-8-hydroxy-4,7,9,12-tetramethyl-3-oxo-7-vinyldecahydro-4,9a-propanocyclopenta[8]annulen-5-yl2-((1-hydroxy-7-methoxy-1,3-dihydrobenzo[c][1,2]oxaborol-6-yl)oxy)acetate] | < 0.25 | 0.5 to 2 (≈ 0.925 to 3.7 µM) |
| < 0.25 | < 0.25 | C=C[C@]1(C)C[C@@H](OC(=O)COc2cc3c(cc2OC)COB3O)[C@]2(C)[C@H](C)CC[C@]3(CCC(=O)[C@H]32)[C@@H](C)[C@@H]1O [Compound 15, (3aR,4R,5R,7S,8S,9R,9aS,12R)-8-hydroxy-4,7,9,12-tetramethyl-3-oxo-7-vinyldecahydro-4,9a-propanocyclopenta[8]annulen-5-yl 2-((1-hydroxy-5-methoxy-1,3-dihydrobenzo[c][1,2]oxaborol-6-yl)oxy)acetate] |  |  |
| < 0.25 |  | C=C[C@]1(C)C[C@@H](OC(=O)COc2ccc3c(c2C#N)B(O)OC3)[C@]2(C)[C@H](C)CC[C@]3(CCC(=O)[C@H]32)[C@@H](C)[C@@H]1O [Compound 16, (3aR,4R,5R,7S,8S,9R,9aS,12R)-8-hydroxy-4,7,9,12-tetramethyl-3-oxo-7-vinyldecahydro-4,9a-propanocyclopenta[8]annulen-5-yl 2-((7-cyano-1-hydroxy-1,3-dihydrobenzo[c][1,2]oxaborol-6-yl)oxy)acetate] |  |  |
|  |  | C=C[C@]1(C)C[C@@H](OC(=O)COc2ccc3c(c2)B(O)OC3C)[C@]2(C)[C@H](C)CC[C@]3(CCC(=O)[C@H]32)[C@@H](C)[C@@H]1O (stereo partly drawn) [Compound 19, (3aR,4R,5R,7S,8S,9R,9aS,12R)-8-hydroxy-4,7,9,12-tetramethyl-3-oxo-7-vinyldecahydro-4,9a-propanocyclopenta[8]annulen-5-yl 2-((1-hydroxy-3-methyl-1,3-dihydrobenzo[c][1,2]oxaborol-6-yl)oxy)acetate] | < 0.25 | 0.5 to 2 (≈ 0.953 to 3.81 µM) |
| 4 to 32 (≈ 7.2 to 57.6 µM) |  | C=C[C@]1(C)C[C@@H](OC(=O)COc2cc(CN)c3c(c2)B(O)OC3)[C@]2(C)[C@H](C)CC[C@]3(C[C@H](O)C(=O)[C@H]32)[C@@H](C)[C@@H]1O [Compound 42, (2S,3aR,4R,5R,7S,8S,9R,9aS,12R)-2,8-dihydroxy-4,7,9,12-tetramethyl-3-oxo-7-vinyldecahydro-4,9a-propanocyclopenta[8]annulen-5-yl 2-((4-(aminomethyl)-1-hydroxy-1,3-dihydrobenzo[c][1,2]oxaborol-6-yl)oxy)acetate] |  |  |

Reference: patent US10919916B2, “Boron-containing small molecules” (Bill & Melinda Gates Foundation, priority 2016, dated 2021)
